Reference: patent publication US7772256B2, “2-heteroaryl substituted benzothiophenes and benzofuranes 709” (Astrazeneca AB, priority 2007, dated 2010)

target: T1, synthetic Aβ 1-40 (Homo sapiens, UniProt P05067); experiment: Competition binding assay ([3H]PIB as radioligand); settings: 2.7 nM [3H]PIB radioligand, phosphate buffer pH 7.5, 30 min room temperature
T1 construct: synthetic Aβ 1-40
Method: Competition binding was performed in 384-well FB filter plates using synthetic Aβ 1-40 in 2.7 nM of [^3H]PIB (or another ^3H-labeled radioligand when so mentioned) in phosphate buffer at pH 7.5, by adding various concentrations of non-radioactive compounds originally dissolved in DMSO. The binding mixture was incubated for 30 min at room temperature, followed by vacuum filtration, and subsequentially by washing twice with 1% Triton-X100. Scintillation fluid was thereafter added to the collected Aβ 1-40 on the filter plate, and the activity of the bound remaining radioligand ([^3H]PIB or another ^3H-labeled radioligand) was measured using 1450 Microbeta from PerkinElmer. Specific binding was determined according to the competion binding assay described herein. The determined IC50's in the competion binding assays (using [^3H]PIB as radioligand) of compounds of the present invention are shown in Table 1.

T1 sequence (P05067 672-711 limits assumed): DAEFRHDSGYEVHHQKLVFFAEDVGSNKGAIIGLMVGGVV

IC50 [nM]	Structure (SMILES)
61	COc1ccc2oc(-c3ccc(C(N)=O)nc3)cc2c1 [5-(5-Methoxy-benzofuran-2-yl)-pyridine-2-carboxylic acid amide]
18	CNc1ccc(-c2cc3cc(O)ccc3o2)c(F)n1 [2-(2-Fluoro-6-methylamino-pyridin-3-yl)-benzofuran-5-ol]
46	CNc1ccc(-c2cc3cc(O)ccc3o2)cn1 [2-(6-Methylamino-pyridin-3-yl)-benzofuran-5-ol]
30	NC(=O)c1ccc(-c2cc3ccccc3s2)cn1 [5-(1-benzothien-2-yl)pyridine-2-carboxamide]
44	CNc1ccc(-c2cc3cc(O)ccc3o2)nc1F [2-(6-Fluoro-5-methylamino-pyridin-2-yl)-benzofuran-5-ol]
32	CNc1ncc(-c2cc3cc(O)ccc3o2)cc1F [2-(5-fluoro-6-methylamino-pyridin-3-yl)-benzofuran-5-ol]
2710	Nc1ccc(-c2cc3cc(O)ccc3o2)nn1 [2-(6-Amino-pyridazin-3-yl)-benzofuran-5-ol]
43	NC(=O)c1ccc(-c2cc3cc(O)ccc3o2)nc1 [6-(5-Hydroxy-benzofuran-2-yl)-nicotinamide]
66	CNc1ccc(-c2cc3cc(OC)ccc3o2)cn1 [[5-(5-Methoxy-benzofuran-2-yl)-pyridin-2-yl]-methylamine]
361	COc1ccc2nc(-c3cc4ccccc4o3)cn2c1 [2-(1-benzofuran-2-yl)-6-methoxyimidazo[1,2-a]pyridine]
33	COc1ccc2oc(-c3ccc(C(N)=O)cn3)cc2c1 [6-(5-Methoxy-benzofuran-2-yl)-nicotinamide]
19	NC(=O)c1ccc(-c2cc3ccccc3o2)cn1 [5-(1-Benzofuran-2-yl)pyridine-2-carboxamide]
600	NC(=O)c1ccc(-c2cc3cc(O)ccc3o2)cn1 [5-(5-Hydroxy-benzofuran-2-yl)-pyridine-2-carboxylic acid amide]
912	COc1ccc2oc(-c3ccc(N)nn3)cc2c1 [6-(5-Methoxy-benzofuran-2-yl)-pyridazin-3-ylamine]
